Source: PMC7198766, “Structure-Activity Studies on the Hypertrehalosemic Hormone II of the Stick Insect Carausius morosus (Phasmatodea): Carbohydrate-Mobilization and Cardio-Stimulatory Activities” (Frontiers in Physiology, 2020)
Values joined by “and” are separate entries in the source; they are usually repeats but may differ in a detail not shown here. Identical values can stand only once. Marks after values point to notes of the source that are not given here.

Tests used:
[1] = test system: heart of neck-ligated Carausius morosus; assay: Semi-exposed heart bioassay (heart beat rate); assay type: in vivo; conditions: for Heart rate, Post-application: after application of 20 pmol peptide in 150 μl saline, average of first four counts; for Heart rate, Post-application / Heart rate, Pre-application: neck-ligated stick insects; for Heart rate, Pre-application: in saline before application, semi-exposed heart; for Heart rate, Difference: post- minus pre-application; for Heart rate, Difference / % Activity relative to the effect of Carmo-HrTH-II (myotropic): 20 pmol peptide in 150 μl; for % Activity relative to the effect of Carmo-HrTH-II (myotropic): heart rate increase relative to Carmo-HrTH-II = 100, NS = no significant increase
Procedure: The semi-exposed heart bioassay was carried out as described ([Marco et al., 2018]) with adult stick insects between 1 and 2 months old that were ligated at the neck. Briefly, a ventral incision of the abdomen exposed the ventral cavity with the internal organs; a few drops of stick insect saline (pH 6.6; 15 mM NaCl, 18 mM KCl, 7.5 mM CaCl2, 2 mM HEPES, 50 mM MgCl2, and 184 mM glucose according to [Ejaz and Lange, 2008]) were added to the exposed part. The semi-isolated heart preparation was viewed with a dissecting microscope (12-fold magnification), and the number of observed heart beats (contractions of the heart muscle) was counted during a fixed period using a manual tally counter and a timer. Once the heart had stabilized, saline was replaced with the test solution. For this the peptide stock solution of 5 pmol μl^–1 was diluted with stick insect saline to the desired concentration and a final volume of 150 μl was used for each test.
Heart rates under normal saline served as controls. The change in heart rate after the application of the test solution was calculated as an average of the first four counts and was compared to the average heart rates counted in saline before the application of the test solution. This comparison of change in heart rates was done for all the peptides tested.

[2] = test system: ligated 6th instar Indian stick insects (Carausius morosus); assay: Carbohydrate-mobilization (hypertrehalosemic) in vivo assay; conditions: for Hemolymph carbohydrates, 90 min: 90 min after injection of 20 pmol peptide in 10 μl; for Hemolymph carbohydrates, 90 min / Hemolymph carbohydrates, Difference: neck-ligated 6th instar nymphs; for Hemolymph carbohydrates, Difference: 90 min minus 0 min, 20 pmol peptide in 10 μl injected; for Hemolymph carbohydrates, 0 min: before injection (0 min), 2 h after neck ligation, group later given 20 pmol peptide in 10 μl, 6th instar nymphs; for % Activity relative to the effect of Carmo-HrTH-II (metabolic): 20 pmol peptide injected, carbohydrate increase relative to Carmo-HrTH-II = 100, NS = no significant increase
Procedure: Sixth instar nymphs that were 1–2 days before molting were neck-ligated and used in the hypertrehalosemic in vivo assay as described in detail by [Gäde and Lohr (1982)]. Stock peptide solutions (5 pmol μl^–1) were diluted with distilled water to the desired concentration in 10 μl, which was injected into the stick insect nymphs.
In the first series of experiments, various doses of synthetic Carmo-HrTH-II and corpora cardiaca (CC) extract of C. morosus were used to determine the maximal hypertrehalosemic response of C. morosus. Hemolymph samples were taken from 17 to 18 days old 6th instar nymphs 2 h after they were neck-ligated and then 90 min after either CC extract or synthetic Carmo-HrTH-II was injected. Ligated nymphs injected with distilled water served as controls for handling stress. As depicted in Figures 1A,B, various doses of both Carmo-HrTH-II and CC extract increased the level of carbohydrates in the hemolymph in a dose-dependent manner. A dose of 0.04 pmol of synthetic Carmo-HrTH-II and the equivalent of 0.005 pairs of corpora cardiaca (pCC) were sufficient to give significant increases in hemolymph carbohydrates (p < 0.05). […] Doses of 0.1–0.5 pCC gave an average increase of 5.6 ± 0.6 mg carbohydrates ml^–1 hemolymph (Figure 1B); again, statistical analyses reveal no significant difference between the effect of these doses (p > 0.05).
Based on these pilot experiments, we selected a dose of 20 pmol for testing the analogs of Carmo-HrTH-II since such a dose of our lead compound, Carmo-HrTH-II had achieved maximal hypertrehalosemic activity.

Substance | Heart rate, Post-application [1] [beats min^−1] | Heart rate, Pre-application [1] | Heart rate, Difference [1] [beats min^−1] | Hemolymph carbohydrates, 90 min [2] [mg/mL] | Hemolymph carbohydrates, Difference [2] [mg/mL] | Hemolymph carbohydrates, 0 min [2] [mg/mL] | % Activity relative to the effect of Carmo-HrTH-II (metabolic) [2] | % Activity relative to the effect of Carmo-HrTH-II (myotropic) [1] | % Activity relative to the effect of Carmo-HrTH-II (metabolic) ([2]; listed as Ala^10 analog of Carmo-HrTH-II)
pGlu-Leu-Thr-Ala-Thr-Pro-Asn-Trp-Gly-Thr amide [Ala^4-Carmo-HrTH-II] | 41 ± 4 | 40 ± 4 beats min^−1 | 1 ± 1 | 9.1 ± 2.4 | 0.5 ± 2.3 | 8.6 ± 2.2 |  |  | 
pGlu-Leu-Thr-Phe-Thr-Pro-Ala-Trp-Gly-Thr amide [Ala^7-Carmo-HrTH-II] | 39 ± 4 | 39 ± 4 beats min^−1 | 0 ± 1 | 12.0 ± 2.2 | 0.7 ± 0.6 | 11.3 ± 2.0 | 13% |  | 
pGlu-Leu-Thr-Phe-Thr-Ala-Asn-Trp-Gly-Thr amide [Ala^6-Carmo-HrTH-II] | 43 ± 5 | 43 ± 5 beats min^−1 | 0 ± 0 | 11.1 ± 0.9 | 1.6 ± 1.1 | 9.5 ± 1.2 |  |  | 
pGlu-Leu-Thr-Phe-Thr-Pro-Ser-Trp amide [Aedae-AKH, naturally-occurring AKH octapeptide bioanalog, reference compound] | 43 ± 6 | 42 ± 6 beats min^−1 | 1 ± 1 | 8.8 ± 1.2 | 0.7 ± 1.1 | 8.1 ± 1.4 |  | 8% | 
pGlu-Leu-Asn-Phe-Thr-Pro-Asn-Trp-Gly-Thr amide [Locmi-AKH-I, naturally-occurring AKH decapeptide bioanalog, reference compound] | 43 ± 4 | 40 ± 4 beats min^−1 | 3 ± 1 | 9.9 ± 1.2 | 1.0 ± 1.2 | 8.9 ± 1.3 | 19% | 25% | 
pGlu-Leu-Thr-Phe-Thr-Pro-Asn-Trp*-Gly-Thr amide [Carmo-HrTH-I, endogenous hormone isolated from C. morosus CC; Trp^8 C-mannosylated, reference compound] | 54 ± 2 | 41 beats min^−1 and 41 ± 4 beats min^−1 | 13 ± 2 | 12.9 ± 1.9 | 4.9 ± 1.1 | 8.0 ± 1.6 | 91^b % | 108^b % | 
pGlu-Leu-Thr-Phe-Thr-Pro-Asn-Trp amide [Peram-CAH-II, naturally-occurring AKH octapeptide bioanalog, reference compound] |  |  |  | 11.0 ± 1.1 | 1.7 ± 2.0 | 9.3 ± 1.8 | 30% and 31% |  | 
pGlu-Leu-Thr-Phe-Thr-Pro-Asn-Trp-Ala-Thr amide [Ala^9-Carmo-HrTH-II] | 38 ± 2 | 39 ± 2 beats min^−1 | −1 ± 1 | 11.0 ± 1.5 | 1.5 ± 0.9 | 9.5 ± 1.9 | 28% |  | 
pGlu-Leu-Thr-Phe-Thr-Pro-Asn-Ala-Gly-Thr amide [Ala^8-Carmo-HrTH-II] | 42 ± 4 | 42 ± 5 beats min^−1 | 0 ± 2 | 8.3 ± 1.9 | -0.1 ± 1.3 | 8.5 ± 2.1 |  |  | 
[N-Ac]Ala-Leu-Thr-Phe-Thr-Pro-Asn-Trp-Gly-Thr amide [Carmo-HrTH-II: [N-Ac]Ala^1] | 39 ± 6 | 39 ± 6 beats min^−1 | 0 ± 0 | 10.6 ± 2.0 | 1.5 ± 1.1 | 9.0 ± 1.3 | 28% |  | 
pGlu-Leu-Thr-Phe-Thr-Pro-Asn-Trp-Gly-Ala amide [Ala^10-Carmo-HrTH-II] | 41 ± 5 | 41 ± 5 beats min^−1 | 0 ± 1 | 12.4 ± 1.6 | 2.5 ± 1.0 | 9.9 ± 2.3 |  |  | about 50%
pGlu-Leu-Thr-Phe-Thr-Pro-Asn-Trp-Gly-Ser amide [Phyle-CC, naturally-occurring AKH decapeptide bioanalog, reference compound] | 46 ± 6 | 38 ± 7 beats min^−1 | 8 ± 2 | 14.1 ± 1.7 | 5.9 ± 1.7 | 8.2 ± 1.9 | 109^b % | 67^b % | 
pGlu-Leu-Asn-Phe-Thr-Pro-Asn-Trp-Gly-Ser amide [Phymo-AKH, naturally-occurring AKH decapeptide bioanalog, reference compound] | 38 ± 4 | 37 ± 3 beats min^−1 | 1 ± 1 | 10.5 ± 1.4 | 0.9 ± 1.7 | 9.6 ± 1.8 |  | 8% | 
Leu-Thr-Phe-Thr-Pro-Asn-Trp-Gly-Thr amide | 46 ± 5 | 39 ± 6 beats min^−1 | 7 ± 2 | 9.5 ± 1.5 | 0.7 ± 1.3 | 8.8 ± 1.7 |  | 58% | 
pGlu-Leu-Ala-Phe-Thr-Pro-Asn-Trp-Gly-Thr amide [Ala^3-Carmo-HrTH-II] | 40 ± 6 | 38 ± 6 beats min^−1 | 2 ± 1 | 11.1 ± 1.8 | 0.8 ± 1.6 | 10.3 ± 2.4 |  | 16% | 
pGlu-Leu-Thr-Phe-Ala-Pro-Asn-Trp-Gly-Thr amide [Ala^5-Carmo-HrTH-II] | 40 ± 7 | 39 ± 7 beats min^−1 | 1 ± 2 | 10.1 ± 1.3 | -0.1 ± 0.1 | 10.2 ± 1.2 |  |  | 
